Reference: patent US5438130A, “Fucosylated guanosine disulfates as excitatory amino acid antagonists” (priority 1993, dated 1995)
Like-named read-outs stand apart in the source and are kept apart here.

What was measured:
kainate receptor [1] = conditions: printed for comparison; source not stated; read-out: IC50 (comparison, non-NMDA antagonists); cited from earlier work
[2] = tested on: T-type calcium currents in N1E-115 murine neuroblastoma cells; test: T-type calcium currents in N1E-115 neuroblastoma cells, whole cell voltage clamp; type: cell-based; conditions: -90 mV to -25 mV; especially between 0 and 90μM; FIG. 7
Protocol: (§1) L-type calcium currents were obtained from cultured N1E-115 murine neuroblastoma cells using standard whole cell voltage clamp techniques [Hamill, O. P. et al. Pflugers Archives 391:85 (1981)]. For recording inward currents, external calcium was substituted with barium. Cells were maintained in a external recording solution containing TEA.Cl, 130 mM; BaCl2, 5 mM; glucose, 10 mM; HEPES, 10 mM; tetrodotoxin, 1μM; pH 7.4). The pipette solution contained CsCl, 115 mM; EGTA, 10 mM; HEPES, 10 mM; Mg.ATP, 4 mM.
(§2) Two sets of experiments were conducted to determine the concentration dependence of both L- and T-type calcium currents to HF7. Each experiment was conducted in a manner similar to that in which the FIG. 6 experiment was performed. Inward L-type currents were elicited by depolarizing test pulses to +10 mV from a resting potential of -50 mV. Inward T-type currents were elicited by depolarizing test pulses to -25 mV from a resting potential of -90 mV. Six doses of HF7 were utilized for each set of experiments. Each dose was tried on three different cells. Responses to HF7 were calculated as percent inhibition of control current. Negative values represent current levels that were greater than control.

kainate receptors = test: Voltage clamp of kainate-elicited currents in fish retinal horizontal cells; type: cell-based
Excerpt: In this experiment, kainate currents were obtained from primary cultures of fish retinal horizontal cells using standard whole cell voltage clamp techniques [Hamill, O. P. et al. Pflugers Archives 391:85 (1981)]. For recordings cells were maintained in a physiological saline containing (in mM) NaCl, 145; KCl, 2.5; CaCl2, 2.5; MgSO4, 1.0; glucose, 10; HEPES, 10, pH 7.5). Cells were held near resting potential (Vh =-60 mV). Kainate current was elicited by superfusion of a solution of physiological saline solution containing 25μM kainate.
(§3) Two sets of experiments were conducted to determine the concentration dependence of both kainate and quisqualate currents to HF7. Each experiment was conducted in a manner similar to that in which the FIG. 4 experiment was conducted. Inward currents were elicited by bath perfusion of either 25μM kainate or by 10μM quisqualate. Six doses of HF7 were utilized for each set of experiments. Each dose was tried on three different cells. Responses to HF7 were calculated as a percent of control kainate current. […] Each point in FIG. 5 is the mean of measurement from three different cells.

[3] = tested on: glutamate-induced current; test: Whole cell recording of glutamate-induced current under voltage clamp (HPLC fraction assay); type: cell-based; conditions: HF7 peak, voltage clamp mode
Protocol: The components were eluted from the column stepwise with 0%, 2% and 4% acetonitrile in 0.1% TFA for the duration of 45 min., 15 min. and 40 min., respectively, at a flow rate of 2 ml/min. The elution was monitored by absorbance at 214 nm (FIG. 2) and 254 nm. According to the elution profile, fractions were collected manually and, after being dried down and dissolved in an appropriate buffer, were assayed in whole cell recording of glutamate-induced current under the voltage clamp mode (see "Functional Characterization" below for details). […] The other batch of HF7 was also purified with a slightly different program of acetonitrile stepwise elution (1% for 20 min., 2% for 20 min. and 4% for 40 min.), resulting in a shorter operation time without a significant change in the elution profile.

[4] = tested on: L-type calcium currents in N1E-115 murine neuroblastoma cells; test: L-type calcium currents in N1E-115 neuroblastoma cells, whole cell voltage clamp; type: cell-based
Protocol: as §1
The results from one experiment can be seen in FIG. 6. A depolarizing test pulse to +10 mV elicited an inward current of ~240 pA, which was reduced by 20% by pressure-ejection (6 psi) of 22μM HF7. The effects of HF7 blockade were partially reversible (60% recovery) subsequent to washout of HF7. The voltage protocol is shown in the inset. Cells were held at Vh =-50 mV. L-type currents were evoked following a depolarizing voltage step to +10 mV.
as §2

[5] = tested on: quisqualate currents in fish horizontal cells; test: Voltage clamp of quisqualate-elicited currents in fish retinal horizontal cells; type: cell-based; conditions: quisqualate 10μM
Protocol: as §3

[6] = tested on: ionic currents elicited by glutamate in fish retinal neurons; test: Voltage clamp of glutamate-elicited currents in fish retinal neurons; type: cell-based; conditions: glutamate 50μM
kainate receptor [7] = test: Displacement of [3H]-kainate, rat forebrain crude synaptic membranes; conditions: 50 mM Tris-acetate; 1 hour at 4° C.; FIG. 3; read-out: IC50, displacement of [3H]-kainate binding
Protocol: The ability of HF7 to block the kainate receptor was tested using a [^3 H]-kainate binding assay. More specifically, a standard receptor binding assay [London, E. D. et al. Molecular Pharmacol. 15:492 (1979)] was performed to determine the extent to which HF7 could displace the binding of radioactive kainate ([^3 H]-kainate, 1.0 mCi/ml, NEN). The membrane source was frozen rat forebrain crude synaptic membranes treated with detergent (0.01% TRITON-X100). Radioligand binding was determined using 50 mM Tris-acetate buffer. Samples were incubated for 1 hour at 4° C. and then filtered over either Whatman GF/B or Schleicher & Schuell glass filters. Non-specific binding was determined using 10^-4 M glutamate. [^3 H]-kainate binding was linear from 50-400 μg protein/tube.

[8] = in vivo; cited from earlier work
[9] = tested on: delayed neuronal degeneration following transient forebrain ischemia; conditions: cited from earlier work
[10] = in vivo; cited from earlier work; remark: listed apart in the source
stroke = conditions: cited from earlier work

## N#Cc1cc2[nH]c(=O)c(=O)[nH]c2cc1[N+](=O)[O-] [CNQX]
Kainate receptor [1]
  IC50: ~2 µM

## O=c1[nH]c2cc([N+](=O)[O-])c([N+](=O)[O-])cc2[nH]c1=O [DNQX]
Kainate receptor [1]
  IC50: ~2 µM

## CC(=O)OC1C(C)OC(O[C@@H]2[C@H](OS(=O)(=O)O)[C@@H](COS(=O)(=O)O)O[C@H]2n2cnc3c(=O)[nH]c(N)nc32)C(O)C1O (stereo partly shown) [HF7]
[2]
  effect on T-type current: much more variable
Kainate receptors; approximately 180μM HF7, pressure-ejection, Vh = -60 mV, kainate 25μM
  effect on kainate-elicited inward current: virtually eliminated
Kainate receptors; kainate 25μM
  inhibition of ionic currents elicited by kainate: reversibly inhibited
Kainate receptors; kainate 25μM, mean of three cells per dose, FIG. 5, read-out: IC50, kainate current
  IC50: ~60 µM
Kainate receptors; subsequent to washout
  reversibility of HF7 blockade of kainate current: fully reversible
Kainate receptors; ~200μM HF7, FIG. 4, kainate 25μM
  inhibition of the kainate response: near-complete inhibition
[3]
  activity on glutamate-induced current: found to be active
[4]; 22μM HF7, Vh = -50 mV, test pulse to +10 mV, FIG. 6
  reduction of L-type inward current: 20%
[4]; subsequent to washout of 22μM HF7, partially reversible
  recovery of L-type current after washout: 60%
[4]; throughout the concentration range used, -50 mV to +10 mV, FIG. 7
  concentration dependence of L-type current inhibition: inhibited in a concentration dependent manner
[5]
  inhibition of ionic currents elicited by quisqualate: reversibly inhibited
[5]; mean of three cells per dose, FIG. 5, read-out: IC50, quisqualate current
  IC50: ~60 µM
[6]
  inhibition of ionic currents elicited by glutamate: reversibly inhibited
Kainate receptor [7]
  IC50: ~20.7 µM

## NS(=O)(=O)c1cccc2c1c([N+](=O)[O-])cc1nc(O)c(O)nc12 [NBQX, 2,3-dihydroxy-6-nitro-7-sulfamoyl-benzo(F)quinoxaline]
[8]
  crossing of the blood-brain barrier: only in minute amounts
[9]; administered several hours after the ischemic insult
  protection on delayed administration: protection was observed
[9]; gerbils and rats, relatively large systemic doses
  prevention of delayed neuronal degeneration following transient forebrain ischemia: dramatically effective

## COCCOC(=O)C1=C(C)NC(C)=C(C(=O)OC(C)C)C1c1cccc([N+](=O)[O-])c1 (stereo not shown) [nimodipine]
[10]
  toxicity relative to NMDA antagonists: less toxic than the NMDA antagonists
stroke; clinical trials
  improvement in the outcome of stroke: Modest improvement
stroke; in vivo
  cardiovascular side effects: significant cardiovascular side effects
